Data on twelve molecules can be found in EP3578378B1, “RECORDING MEDIUM AND METHOD FOR PRODUCING RECORDING MEDIUM” (CANON KABUSHIKI KAISHA, priority 2018, dated 2019).

Each structure is given as a SMILES string. Values after ≈ are worked out from the molar mass of the structure shown. Where only a bound is given, the exact number is not on record here.

This series in a line: Solubility of compound (B) in water at 20°C (10.0 g sample in 100 mL ion-exchange water, undissolved or recrystallized sample weighed). The following applies: stirred at 80°C for one hour, cooled to 20°C, more than 10.0 g/100 mL if completely dissolved. It counts as physicochemical. Here is the method: The method for measuring this solubility is as follows.
First, 10.0 g of a sample to be measured is added to 100 mL of ion-exchange water, and the resulting mixture is stirred at 80°C for one hour to dissolve the sample. Next, the resulting solution in which the sample is dissolved is cooled to 20°C. The sample that remains without being dissolved or is recrystallized is collected, and the weight thereof is determined. […] Crosslinking Agent
The solubility (thermodynamic) is the concentration in solution at equilibrium with solid. For `Oc1ccc(O)c(O)c1` [1,2,4-Trihydroxybenzene, 1,2,4-trihydroxybenzene, reference compound], the thermodynamic solubility at 1 h is above 100 mg/mL.

In the case of `NC(=O)/C=C/C(N)=O` [Fumaramide, fumaramide], the “Solubility in water at 20°C” value was found to be 0.2 g/100 mL.

For `O=C(O)/C=C/C(=O)O` [Fumaric acid, fumaric acid], the “Solubility in water at 20°C” value was 0.5 g/100 mL.

Take `O=C(O)c1cc(O)c(O)c(O)c1` [Gallic acid, gallic acid]: the “Solubility in water at 20°C” value amounted to 1.0 g/100 mL.

With `O=C(O)c1cccc(C(=O)O)c1C(=O)O` [Hemimellitic acid, hemimellitic acid], the “Solubility in water at 20°C” value is 2.0 g/100 mL.

Take `O=C(O)/C=C\C(=O)O` [Maleic acid, maleic acid, reference compound]: the “Solubility in water at 20°C” value is above 10.0 g/100 mL.

`O=C(O)c1cc(C(=O)O)c(C(=O)O)cc1C(=O)O` [Pyromellitic acid, pyromellitic acid]: the solubility (thermodynamic) at 1 h worked out at 15 mg/mL (≈ 59 mM).

Turning to `O=C(O)c1ccc(C(=O)O)c(C(=O)O)c1` [Trimellitic acid, trimellitic acid], the “Solubility in water at 20°C” value stood at 2.0 g/100 mL.

On to `NC(=O)c1cc(C(N)=O)cc(C(N)=O)c1` [Trimesamide, trimesamide], for which the “Solubility in water at 20°C” value is 0.2 g/100 mL.

Take `O=C(O)c1cc(C(=O)O)cc(C(=O)O)c1` [Trimesic acid, trimesic acid]: the “Solubility in water at 20°C” value turned out to be 0.5 g/100 mL.

With `CC(=O)[O-].CC(=O)[O-].[O-2].[Zr+4]` [ZrO(C2H3O2)2, reference compound], the “Solubility in water at 20°C” value is recorded as above 10 g/100 mL.

Turning to `[Cl-].[Cl-].[O]=[Zr+2]` [ZrOCl2, reference compound], the “Solubility in water at 20°C” value is given as above 10 g/100 mL.
